Values quoted from earlier work in patent US4356265A, “Method for the production of antibiotic C-15003 P-3” (priority 1979, dated 1982).
Converted amounts (≈) assume the structure as drawn. Like-named read-outs stand apart in the source and are kept apart here.

Key:
Venturia pirina = details: IFO 6189, PAA, 48 h; 0.02 ml of 1000 μg/ml
Diaporthe citri = details: IFO 9170, PSA, 48 h; 0.02 ml of 1000 μg/ml
[1] = test system: Trichophyton mentagrophytes; details: IFO 7522, GB, 48 h; 0.02 ml of 1000 μg/ml
Escherichia coli = details: 0.02 ml of 300-μg/ml solution per disc, Trypticase Soy Agar
Rhodotorula rubra = details: IFO 0907, PSA, 48 h; 0.02 ml of 1000 μg/ml
Pythium aphanidermatam = details: IFO 7030, PSA, 48 h; 0.02 ml of 1000 μg/ml
Bacillus subtilis = details: 0.02 ml of 300-μg/ml solution per disc, Trypticase Soy Agar
Botrytis cinerea = details: PSA, 48 h; 0.02 ml of 1000 μg/ml
Fusicladium levieri = details: IFO 6477, PSA, 90 h; 0.02 ml of 1000 μg/ml
Cochlioborus miyabeanus = details: IFO 5277, PSA, 48 h; 0.02 ml of 1000 μg/ml
[2] = test system: Helminthosporium sigmoideum var. irregulare; details: IFO 5273, PSA, 48 h; 0.02 ml of 1000 μg/ml
Rhizopus nigricans = details: IFO 6188, PSA, 48 h; 0.02 ml of 1000 μg/ml
Guignardia laricina = details: IFO 7888, PSA, 48 h; 0.02 ml of 1000 μg/ml
Proteus vulgaris = details: 0.02 ml of 300-μg/ml solution per disc, Trypticase Soy Agar
Sclerotinia sclerotiorum = details: IFO 9395, PSA, 90 h; 0.02 ml of 1000 μg/ml
Tetrahymena pyriformis W = details: pH 7.0, 28° C., 44 to 48 hours
[3] = test system: Fusarium oxysporum f. cucumerinum; details: PSA, 48 h; 0.02 ml of 1000 μg/ml
Pseudomonas aeruginosa = details: 0.02 ml of 300-μg/ml solution per disc, Trypticase Soy Agar
Bacillus cereus = details: 0.02 ml of 300-μg/ml solution per disc, Trypticase Soy Agar
Elsinoe fawcetti = details: IFO 8417, PSA, 90 h; 0.02 ml of 1000 μg/ml
Candida albicans = details: IFO 0583, GB, 48 h; 0.02 ml of 1000 μg/ml
Staphylococcus aureus = details: 0.02 ml of 300-μg/ml solution per disc, Trypticase Soy Agar
Pyricularia oryzae = details: PSA, 48 h; 0.02 ml of 1000 μg/ml
Aspergillus niger = details: IFO 4066, PSA, 48 h; 0.02 ml of 1000 μg/ml
Pellicularia sasakii = details: IFO 9253, PSA, 48 h; 0.02 ml of 1000 μg/ml
Talaromyces avellaneus = details: agar plate, pH 7.0
Klebsiella pneumoniae = details: 0.02 ml of 300-μg/ml solution per disc, Trypticase Soy Agar
mice = details: intraperitoneal injection
Proteus mirabilis = details: 0.02 ml of 300-μg/ml solution per disc, Trypticase Soy Agar
Candida utilis = details: IFO 0619, GB, 48 h; 0.02 ml of 1000 μg/ml
Gibberella zeae = details: IFO 8850, PSA, 48 h; 0.02 ml of 1000 μg/ml
Penicillium chrysogenum = details: IFO 4626, PSA, 48 h; 0.02 ml of 1000 μg/ml
Trichophyton rubrum = details: IFO 5467, GB, 48 h; 0.02 ml of 1000 μg/ml
P388 leukemia cells = details: 0.00625 mg/kg/day, intraperitoneally, 9 consecutive days; 1×10^6 cells/animal i.p.
Saccharomyces cerevisiae = details: IFO 0209, PSA, 48 h; 0.02 ml of 1000 μg/ml
Serratia, marcescens = details: 0.02 ml of 300-μg/ml solution per disc, Trypticase Soy Agar
Mycobacterium avium = details: 0.02 ml of 300-μg/ml solution per disc, Trypticase Soy Agar
Alternaria kikuchiana = details: IFO 7515, PSA, 48 h; 0.02 ml of 1000 μg/ml
Cryptococcus neoformans = details: IFO 0410, GB, 48 h; 0.02 ml of 1000 μg/ml

In the case of `COc1cc2cc(c1Cl)N(C)C(=O)CC(OC(=O)C(C)C)C1(C)OC1C(C)C1CC(O)(NC(=O)O1)C(OC)C=CC=C(C)C2` (stereo not shown) [Antibiotic C-15003 P-3], the Inhibition diameter (Venturia pirina) is given as 50 mm, the Inhibition diameter (Diaporthe citri) is given as 55 mm and the Inhibition diameter [1] is given as 38 mm. The antibacterial activity (Escherichia coli) was “no activity”, the Inhibition diameter (Rhodotorula rubra) was 28 mm and the Inhibition diameter (Pythium aphanidermatam) was 58 mm. The antibacterial activity (Bacillus subtilis) was “no activity”, the Inhibition diameter (Botrytis cinerea) was 48 mm and the Inhibition diameter (Fusicladium levieri) was 68 mm. For the same molecule, the Inhibition diameter (Cochlioborus miyabeanus) was 60 mm, the Inhibition diameter [2] was 55 mm and the Inhibition diameter (Rhizopus nigricans) was 25 mm. The Inhibition diameter (Guignardia laricina) was 12 mm, the antibacterial activity (Proteus vulgaris) was “no activity” and the Inhibition diameter (Sclerotinia sclerotiorum) was 65 mm. The “growth inhibition (concentration at which it occurs)” value (Tetrahymena pyriformis W) was 1 µg/mL, the Inhibition diameter [3] was 20 mm and the antibacterial activity (Pseudomonas aeruginosa) was “no activity”. The antibacterial activity (Bacillus cereus) was “no activity”, the Inhibition diameter (Elsinoe fawcetti) was 55 mm and the Inhibition diameter (Candida albicans) was 0 mm. For the same molecule, the antibacterial activity (Staphylococcus aureus) was “no activity”, the Inhibition diameter (Pyricularia oryzae) was 53 mm and the Inhibition diameter (Aspergillus niger) was 0 mm. The Inhibition diameter (Pellicularia sasakii) was 50 mm, the Solubility (in benzene, ether) was “Sparingly soluble” and the Solubility (in chloroform, ethyl acetate, acetone, ethanol, methanol, pyridine, tetrahydrofuran, dimethylsulfoxide) was “Soluble”. For the same molecule, the Solubility (in petroleum ether, n-hexane, water) was “Insoluble”, the minimal inhibitory concentration (Talaromyces avellaneus) was 3 µg/mL (≈ 4.72 µM) and the antibacterial activity (Klebsiella pneumoniae) was “no activity”. For the same molecule, the LD0 (mice) was 0.313 mg/kg, the LD100 (mice) was 0.625 mg/kg and the antibacterial activity (Proteus mirabilis) was “no activity”. For the same molecule, the Inhibition diameter (Candida utilis) was 0 mm, the Inhibition diameter (Gibberella zeae) was 37 mm and the Inhibition diameter (Penicillium chrysogenum) was 35 mm. The Inhibition diameter (Trichophyton rubrum) was 38 mm, the life-span-extending ratio (P388 leukemia cells) was 200% and the Inhibition diameter (Saccharomyces cerevisiae) was 0 mm. The antibacterial activity (Serratia, marcescens) was “no activity”, the antibacterial activity (Mycobacterium avium) was “no activity” and the Inhibition diameter (Alternaria kikuchiana) was 38 mm. For the same molecule, the Inhibition diameter (Cryptococcus neoformans) was 43 mm.
